Laboratory results as given in US20160346226A1, “Therapeutic Applications Of Prenylated Stilbenoids Against Rotavirus Infections” (ARKANSAS STATE UNIVERSITY, priority 2015, published 2016).
Where two headings read alike, the source gives them in different places.

Columns and labels:
RV SA114F [1] = experiment: Plaque forming unit (PFU) assay of the same supernatants; assay type: cell-based, simian rotavirus SA114F; details: 20 μM, average of three experiments, HT29.f8 supernatants
RV SA114F [2] = experiment: Focus forming unit (FFU) viral titer of supernatants of RV-infected HT29.f8 cells treated with stilbenoids; assay type: cell-based, simian rotavirus SA114F
RV-infected MA104 cells = details: reference [29]; cited from earlier work
mammalian cells = details: all cell lines, reference [3]; cited from earlier work
[3] = tested on: human leukemia HL-60 cells; details: reference [2]; cited from earlier work
[4] = tested on: cannabinoid receptor 1 (CB1R); details: cited from earlier work; for mode of action at CB1R: reference [19]; for modulation of the cannabinoid receptors: references [18, 19]
[5] = tested on: rotavirus (Wa) infected HT29.f8 cells; experiment: TEM observations of cell ultrastructure of rotavirus (Wa) infected HT29.f8 cells; assay type: cell-based, human; details: 20 μM, 18 hpi
Excerpt: Observations of Cell Ultrastructure with TEM of Rotavirus (RV) Infected HT29.f8 Cells w/without t-A3
Mitochondria (M), rotavirus particles (RV), and a nucleolus (N) can be seen. Final Magnification=8,300×.

| SMILES | difference in PFU/ml versus RV only and RV with DMSO (RV SA114F [1]) | mode of action at CB1R [4] | modulation of the cannabinoid receptors [4] | change in virus titer (FFU) compared to RV-infected control (RV SA114F [2]) | other results |
| --- | --- | --- | --- | --- | --- |
| Oc1ccc(/C=C/c2cc(O)cc(O)c2)cc1 [t-Res, Trans-resveratrol, reference compound] | no statistical differences |  |  |  | change in virus titer (FFU) compared to RV-infected control (RV SA114F [2]; 20 μM, 24 hours post-infection, HT29.f8 cells): no change in the virus titer |
| CCCCCCCCCCCCCCOc1ccc(C(=O)O)o1 [TOFA, 5-(tetradecyloxy)-2-furoic acid] |  |  |  |  | virus infectivity and viral RNA production (RV-infected MA104 cells): dose-dependent reduction |
| CC(C)/C=C/c1c(O)cc(/C=C/c2ccc(O)c(O)c2)cc1O [t-A1, Trans-Arachidin-1] | one hundred fold difference | antagonize CB1R agonists by both competitive and non-competitive mechanisms | modulate the cannabinoid receptors at micromolar levels | one hundred fold decrease in virus titer | cytotoxicity (mammalian cells): highest but moderate cytotoxicity; programmed cell death [3]: inducing programmed cell death |
| CC(C)/C=C/c1c(O)cc(/C=C/c2ccc(O)cc2)cc1O [t-A3, trans-arachidin-3] | one hundred fold difference | competitive cannabinoid receptor 1 (CB1R) antagonist | modulate the cannabinoid receptors at micromolar levels | one hundred fold decrease in virus titer | RV particles observed that were noninfectious, immature enveloped particles [5]: about 50%; autophagic vesicles (AV) ([5]; RV(Wa)): absent; mitochondria ultrastructure ([5]; RV(Wa)): Many mitochondria present with normal ultrastructure; nucleoli ([5]; RV(Wa)): Nucleoli present; vesicles in the cytoplasm ([5]; RV(Wa)): not as many as in the RV(Wa) only |
